Experimental findings from ChEMBL document CHEMBL3259636, “Phenyl carboxamide analogues as spleen tyrosine kinase (syk) inhibitors” (ACS Med Chem Lett, 2014) are described below.

The target of the experiment is Tyrosine-protein kinase SYK (Homo sapiens, UniProt P43405). Put plainly: Inhibition of human recombinant SYK by HTRF assay.

Broadly, the IC50 is the concentration needed to halve the response being measured. As to `NC(=O)c1ccc(N[C@@H]2CCCC[C@@H]2N)cc1Nc1cccc(-c2ccc(F)c(F)c2)n1`, the IC50 was less than 1.5 nM. With `NC(=O)c1ccc(N[C@@H]2CCCC[C@@H]2N)cc1Nc1cccc(-c2ccccc2)n1` the figure was less than 1.5 nM.

Consider `Cc1cccc(Nc2cc(N[C@@H]3CCCC[C@@H]3N)ccc2C(N)=O)n1`, for which the IC50 is greater than 1.5 nM. The same measure for `COc1ccc(-c2cccc(Nc3cc(N[C@@H]4CCCC[C@@H]4N)ccc3C(N)=O)n2)cc1`: less than 1.5 nM; for `NC(=O)c1ccc(N[C@@H]2CCCC[C@@H]2N)cc1Nc1cccc(-c2cccc(F)c2)n1`: less than 1.5 nM.
